# According to US20250250284A1, “MACROCYCLE COMPOUNDS USEFUL AS KRAS INHIBITORS” (Hoffmann-La Roche Inc., priority 2022, published 2025):
# What was measured:
# [1] = target: KRAS G12C-BRAF complex (Homo sapiens (Human), UniProt P01116+P62937, G12C); assay: KRAS-BRAF with CYPA (500 nM) interaction assay (TR-FRET), G12C; format: binding; conditions: GMPPNP loaded 6His-KRAS, GST-BRAF RBD, 3 hours
# Experimental: (§1) KRAS-BRAF with CYPA (500 nM) Interaction Assay
# (§2) In this example, TR-FRET was also used to measure the compound or compound-CYPA dependent disruption of the KRAS G12C-BRAF complex. This protocol was also used to measure disruption of KRAS G12D or KRAS G12V binding to BRAF by a compound of the invention, respectively. In assay buffer containing 25 mM HEPES PH=7.4 (4-(2-hydroxyethyl)-1-piperazineethanesulfonic acid, Thermo, 15630080), 0.002% Tween20, 0.1% BSA, 100 mM NaCl, 5 mM MgCl2, 10 μM GMPPNP (Guanosine 5′-[β,γ-imido]triphosphate trisodium salt hydrate, Sigma, G0635), tagless CYPA, GMPPNP loaded 6His-KRAS proteins, and GST-BRAF^RBD were mixed in a well of a 384-well assay plate at final concentrations of 50 nM, 6.25 nM and 1 nM, respectively. Compound was present in plate wells as a 16-point 3-fold dilution series starting at a final concentration of 10 μM and incubated for 3 hours. A mixture of MAb Anti-6His-XL665 (Cisbio, 61HISXLB) and Mab anti-GST-TB cryptate (Cisbio, 61GSTTLB) was then added at a final concentration of 6.67 nM and 0.21 nM, respectively, and the plate was incubated for an additional 1.5 hours. TR-FRET signal was read on a PHERstar FSX microplate reader (Ex320 nm, Em 665/615 nm). Compounds that facilitate disruption of the KRAS-BRAF complex were identified as those eliciting a decrease in the TR-FRET ratio relative to DMSO control wells.
# [2] = test system: phosphorylation of ERK, KRAS G12C in NCI-H358 cells; assay: pERK inhibition assay, KRAS G12C; format: cell-based; conditions: Homo sapiens, 4 hours of incubation
# Experimental: (§3) This assay is to measure the ability of test compounds in inhibiting the phosphorylation of ERK, the downstream signaling of KRAS G12C in NCI-H358 cells, KRAS G12D in AGS cells, and KRAS G12V in SW620. NCI-H358 (ATCC-CRL5807) cells, AGS (ATCC-CRL-1739) cells, SW620 (ATCC-CCL-227) cells were all grown and maintained using RPMI-1640 medium (Thermo Fisher Scientific) with 10% fetal bovine serum and 1% penicillin/streptomycin. On the day prior to compound addition, cells were plated in tissue culture-treated 96 well plates (Corning-3699) at a density of 30,000 cell/well, 20,000 cell/well, 30,000 cell/well for NCI-H358, AGS and SW620 respectively, and allowed for attachment overnight. Diluted compounds were then added in a final concentration of 0.5% DMSO. After 4 hours of incubation, the medium was removed, 100 μL of 4% formaldehyde was added, and the assay plates were incubated at room temperature for 20 minutes. The plates were then washed once with phosphate buffered saline (PBS), and permeabilized with 100 μL of chilled methanol for 10 minutes. Non-specific antibody binding to the plates was blocked using 50 μL 1×BSA blocking buffer (Thermo-37520, 10-fold dilution by Phosphate-Buffered Saline Tween (PBST) for at least 1 hour at room temperature.
# (§4) The amount of phosphor-ERK was determined using an antibody specific for phosphorylated form of ERK. Primary antibody (pERK, CST-4370, Cell Signaling Technology) was diluted 1:300 in blocking buffer, with 50 μL aliquoted to each well, and incubated overnight at 4° C. Cells was washed five times for 5 minutes with PBST. Secondary antibody (HRP-linked anti-rabbit IgG, CST-7074, Cell Signaling Technology) was diluted 1:1000 in blocking buffer, and 50 μL was added to each well and incubated 1-2 hrs at room temperature. Cells was washed 5 times for 5 minutes with PBST, 100 μL TMB ELISA substrate (abcam-ab171523) were added and gently shake for 20 minutes. 50 μL stop solution (abcam-ab171529) were added, and then read the signal (OD450) by EnVision.
# (§5) IC50 was determined by fitting a 4-parameter sigmoidal concentration response model.
# [3] = test system: SW620 cells; assay: Cell viability assay (Cell Counting Kit-8), KRAS G12V; format: cell-based; conditions: Homo sapiens, SW-620, 72 hrs incubation, CCK-8
# Experimental: (§6) The purpose of this cellular assay was to determine the effects of test compounds on the proliferation of human cancer cell lines NCI-H358 (ATCC-CRL5807) cells, AGS (ATCC-CRL-1739) cells, SW620 (ATCC-CCL-227) over a 3-day treatment period by quantifying the amount of NADPH present at endpoint using Cell Counting Kit-8.
# (§7) Cells were seeded at 5,000 cells/well (NCI-H358), 2,000 cells/well (AGS) 2,000 cells/well (SW620) in 96-well assay plates (Corning-3699) and incubated overnight. On the day of the assay, diluted compounds were then added in a final concentration of 0.5% DMSO. After 72 hrs incubation, a tenth of the volume of cell counting kit 8 (Dnjindo-CK04) was added into each well. Read the signal (OD450 minus OD650) using EnVision after 2 hrs incubation. IC50 was determined by fitting a 4-parameter sigmoidal concentration response model.
# [4] = target: KRAS G12D binding to BRAF (Homo sapiens (Human), UniProt P01116+P62937, G12D); assay: KRAS-BRAF with CYPA (500 nM) interaction assay (TR-FRET), G12D; conditions: GMPPNP loaded 6His-KRAS, GST-BRAF RBD, 3 hours
# KRAS G12D binding to BRAF, sequence (P01116-2 other isoform, or with tags, fused parts or gaps G12D): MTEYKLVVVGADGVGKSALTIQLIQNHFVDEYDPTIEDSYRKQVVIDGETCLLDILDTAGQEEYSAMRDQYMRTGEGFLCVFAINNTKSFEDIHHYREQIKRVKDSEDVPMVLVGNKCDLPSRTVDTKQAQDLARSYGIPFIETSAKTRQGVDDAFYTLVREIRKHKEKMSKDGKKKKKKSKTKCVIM
# KRAS G12D binding to BRAF, sequence (P62937 whole entry): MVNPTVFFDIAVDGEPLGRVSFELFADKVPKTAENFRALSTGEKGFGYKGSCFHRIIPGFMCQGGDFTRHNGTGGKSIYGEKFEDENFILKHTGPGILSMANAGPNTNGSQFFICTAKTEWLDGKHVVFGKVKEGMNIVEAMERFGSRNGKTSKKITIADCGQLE
# Experimental: as §1, §2
# [5] = test system: phosphorylation of ERK, KRAS G12V in SW620; assay: pERK inhibition assay, KRAS G12V; format: cell-based; conditions: Homo sapiens, SW-620; SW620 cells, 4 hours of incubation
# Experimental: as §3, §4, §5
# [6] = target: KRAS G12V binding to BRAF (Homo sapiens (Human), UniProt P01116+P62937, G12V); assay: KRAS-BRAF with CYPA (500 nM) interaction assay (TR-FRET), G12V; conditions: GMPPNP loaded 6His-KRAS, GST-BRAF RBD, 3 hours
# KRAS G12V binding to BRAF, sequence (P01116-2 other isoform, or with tags, fused parts or gaps G12V): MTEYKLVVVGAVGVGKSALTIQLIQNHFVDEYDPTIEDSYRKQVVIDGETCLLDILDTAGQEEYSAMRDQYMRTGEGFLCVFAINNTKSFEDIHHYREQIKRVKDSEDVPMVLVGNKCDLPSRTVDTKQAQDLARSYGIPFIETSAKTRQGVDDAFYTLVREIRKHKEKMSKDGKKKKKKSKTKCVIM
# KRAS G12V binding to BRAF, sequence (P62937 whole entry): as the sequence (P62937 whole entry) above
# Experimental: as §1, §2
# [7] = test system: phosphorylation of ERK, KRAS G12D in AGS cells; assay: pERK inhibition assay, KRAS G12D; format: cell-based; conditions: Homo sapiens, 4 hours of incubation
# Experimental: as §3, §4, §5
# [8] = test system: AGS cells; assay: Cell viability assay (Cell Counting Kit-8), KRAS G12D; format: cell-based; conditions: Homo sapiens, 72 hrs incubation, CCK-8
# Experimental: as §6, §7
# [9] = test system: NCI-H358 cells; assay: Cell viability assay (Cell Counting Kit-8), KRAS G12C; format: cell-based; conditions: Homo sapiens, 72 hrs incubation, CCK-8
# Experimental: as §6, §7
# KRAS G12C-BRAF complex, sequence (P01116-2 other isoform, or with tags, fused parts or gaps G12C): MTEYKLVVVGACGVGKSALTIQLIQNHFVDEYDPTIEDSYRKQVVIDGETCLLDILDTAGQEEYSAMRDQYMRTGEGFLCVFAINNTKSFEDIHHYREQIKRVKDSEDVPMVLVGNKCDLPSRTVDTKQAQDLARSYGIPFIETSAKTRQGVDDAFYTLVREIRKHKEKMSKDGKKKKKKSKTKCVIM
# KRAS G12C-BRAF complex, sequence (P62937 whole entry): as the sequence (P62937 whole entry) above
structure (smiles),measurement,setting,value
"CO[C@@H](C)c1ncc(N2CCN(C)CC2)cc1-c1c2c3c(F)c(ccc3n1CC(F)(F)F)-c1csc(n1)C[C@H](NC(=O)[C@H]1C[C@@H]1C)C(=O)N1CCC[C@H](N1)C(=O)OCC(C)(C)C2 (atropisomer, axis not shown; (M)) [Example 10, (1S,2S)—N-[(7S,13S)-25-fluoro-(20M)-20-[2-[(1S)-1-methoxyethyl]-5-(4-methylpiperazin-1-yl)-3-pyridyl]-17,17-dimethyl-8,14-dioxo-21-(2,2,2-trifluoroethyl)-15-oxa-4-thia-9,21,27,28-tetrazapentacyclo[17.5.2.1^2,5.1^9,13.0^22,26]octacosa-1(25),2,5(28),19,22(26),23-hexaen-7-yl]-2-methyl-cyclopropanecarboxamide]",IC50,[1],0.009 µM
same,IC50,[2],0.017 µM
same,IC50,[3],0.003 µM
same,IC50,[4],0.02 µM
same,IC50,[5],0.002 µM
same,IC50,[6],0.013 µM
same,IC50,[7],0.011 µM
same,IC50,[8],0.013 µM
same,IC50,[9],0.012 µM
